In patent publication US7388105B2, “Compounds and use to reduce the formation of malodour” (Givaudan S.A., priority 2005, dated 2008):
Where two headings read alike, the source gives them in different places.

Biological target: alpha-N-acyl-glutamine-aminoacylase (Corynebacterium striatum, UniProt Q8GGD4)
Assay: Competitive substrates of alpha-N-acyl-glutamine-aminoacylase: reduction of acid release
Type: biochemical
Settings: for inhibition at 50 µM: tested compound 0.05 mM; for inhibition at 50 µM / inhibition at 100 µM / inhibition at 200 µM / inhibition at 400 µM: 15 min; for inhibition at 100 µM: tested compound 0.1 mM; for inhibition at 200 µM: tested compound 0.2 mM; for inhibition at 400 µM: tested compound 0.4 mM
Experimental: In a sample, the enzyme alpha-N-acyl-glutamine-aminoacylase was used at a concentration of 36 ng/ml in Buffer A (50 mM NaCl; 50 mM NaH2PO4/K2HPO4; pH 7). To each sample, alpha-N-decanoyl-glutamine or alpha-N-(E)-3-methyl-2-hexenoyl-glutamine was added at a final concentration of 0.2 mM as a substrate.
Further, to each sample various competitive substrates are added as shown in Table 1 below at different concentrations as indicated.
The resulting samples with enzyme, substrate and competitive substrate were incubated for 15 minutes, acidified to pH 2 with HCl and extracted with methyl tert butyl ether (MTBE). […] The percentage of the reduction of the release when compared to the positive control is given in Table 1 (equals inhibition of the enzmye).

[1] = substrate alpha-N-decanoyl-glutamine 0.2 mM, release of decanoic acid vs positive control, read-out: % Inhibition (DA)
[2] = substrate alpha-N-(E)-3-methyl-2-hexenoyl-glutamine 0.2 mM, release of (E)-3-methyl-2-hexenoic acid vs positive control, read-out: % Inhibition (MH)

Sequence of alpha-N-acyl-glutamine-aminoacylase (Q8GGD4 whole entry): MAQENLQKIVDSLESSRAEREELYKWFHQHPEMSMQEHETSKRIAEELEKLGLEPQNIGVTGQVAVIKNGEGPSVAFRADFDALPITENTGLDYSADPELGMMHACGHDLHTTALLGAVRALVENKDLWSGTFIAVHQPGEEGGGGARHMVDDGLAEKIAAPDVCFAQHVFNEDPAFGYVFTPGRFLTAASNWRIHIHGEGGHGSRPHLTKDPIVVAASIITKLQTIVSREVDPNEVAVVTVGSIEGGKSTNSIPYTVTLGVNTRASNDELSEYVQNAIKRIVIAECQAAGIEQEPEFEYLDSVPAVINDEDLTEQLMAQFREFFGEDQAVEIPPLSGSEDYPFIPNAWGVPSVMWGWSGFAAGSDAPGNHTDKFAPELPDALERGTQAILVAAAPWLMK

Row | Structure (SMILES) | Inhibition of Nα-acyl-glutamine-aminoacylase (in words) (summary of Table 1) | inhibition at 50 µM [1] | inhibition at 100 µM [2] | inhibition at 100 µM [1] | inhibition at 200 µM [2] | inhibition at 200 µM [1] | inhibition at 400 µM [2]
1 | CC(CCOC(=O)NC(CCC(N)=O)C(=O)O)CCc1ccccc1 [Compound 1, alpha-N-(3-Methyl-5-phenylpentanyloxycarbonyl)-L-glutamine] | particularly good inhibitor | 38.3% | 35.5% | 57% | 58.1% | 64.4% | 78.3%
2 | C=CCCCCCCCCC(=O)NC(CCC(N)=O)C(=O)O [Compound 2, alpha-N-(10-undecenoyl)-L-glutamine] |  | 0.9% | 0% | 2.2% | 2.1% | 15.6% | 24.2%
3 | CC1CCC(C(C)C)C(OC(=O)NC(CCC(N)=O)C(=O)O)C1 [Compound 3, alpha-N-(2-isopropyl-5-methylcyclohexanyloxycarbonyl)-L-glutamine] |  |  | 7.4% | 19.3% | 16.5% | 27.2% | 33.9%
4 | CC(C)=CCCC(C)CCOC(=O)NC(CCC(N)=O)C(=O)O [Compound 4, alpha-N-(3,7-dimethyl-oct-6-enyloxycarbonyl)-L-glutamine] |  | 15.9% | -0.3% | 13.8% | 17.1% | 34.6% | 16.1%
5 | CCCCOC(=O)N[C@@H](CCC(N)=O)C(=O)O [Compound 5, alpha-N-Butyloxycarbonyl-L-glutamine] |  | 6.7% | 1.1% | 6.8% | 0% | 10.4% | 0%
6 | CC(C)(C)C1CCC(OC(=O)N[C@@H](CCC(N)=O)C(=O)O)CC1 (stereo partly drawn) [Compound 6, alpha-N-(4-tert-Butylcyclohexyloxycarbonyl)-L-glutamine] |  | 11.3% | 4.9% | 14.3% | 14.8% | 21.2% | 28.5%
